Test systems include A549 NSCLC; COLO 205 colon; EKVX NSCLC; HCC-2998 colon; HCT-116 colon; K-562 leukemia; M14 melanoma; NCI-H23 lung; NCI-H460 lung; OVCAR-4 ovarian; OVCAR-5 ovarian; SF-295 CNS; SF-539 CNS; SN12C renal; SNB-75 CNS; UACC-62 melanoma; UO-31 renal.
What all share (test): growth of human tumour cells (NCI), 48 h

In PubChem BioAssay (NCI) one finds TGI data, which are given here for nine compounds.

Molecules are shown by their SMILES.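 Results reflect a 48-hour exposure of cells in 96-well plates to compound at five concentrations. The concentration for full growth arrest is given as TGI.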

In the case of `CCCCC/C=C1\CCC(CN(C)C)C1=O` (centres undefined), the TGI in the test on A549 NSCLC is over 63.5 µM; in the test with COLO 205 colon, 22.6 µM; in the test with EKVX NSCLC it was over 56.3 µM; in the test on HCC-2998 colon, 31 µM; in the test with HCT-116 colon, 25 µM; in the test on K-562 leukemia it was 28.2 µM. For the same compound, the TGI with M14 melanoma is 28.1 µM; in the test on NCI-H23 lung, 34.6 µM; in the test on NCI-H460 lung, over 100 µM; in the test with OVCAR-4 ovarian, 42.2 µM; in the test on OVCAR-5 ovarian, 33.7 µM; with SF-295 CNS, 40.9 µM. For the same compound, the TGI in the test with SF-539 CNS came out at 24.1 µM; in the test with SN12C renal, 30.1 µM; in the test on SNB-75 CNS, 32.3 µM; in the test with UACC-62 melanoma, 29.4 µM; with UO-31 renal it was 31.4 µM.

As to `CN(C)CCNC(=O)c1cccc2c(Nc3ccc(S(=O)(=O)N=C(N)N)cc3)c3ccccc3nc12`, the TGI in the test on A549 NSCLC is 48.4 µM; in the test on COLO 205 colon it was 32.2 µM; with EKVX NSCLC, 55.3 µM; in the test with HCT-116 colon, over 100 µM; with K-562 leukemia, 77.4 µM; in the test with M14 melanoma it was over 100 µM. Moreover, the TGI in the test with NCI-H23 lung was over 100 µM; in the test on NCI-H460 lung it was 18.7 µM; in the test on OVCAR-4 ovarian it was 30 µM; in the test with OVCAR-5 ovarian it was 90.4 µM; with SF-295 CNS it was 75.2 µM; in the test on SF-539 CNS it was 36.7 µM. The TGI in the test with SN12C renal was found to be 59.5 µM; in the test on SNB-75 CNS, 43.8 µM; with UACC-62 melanoma, 22.8 µM; in the test with UO-31 renal, 48.6 µM.

With `CCOC(=O)C1SC(=Nc2ccccc2)N=C1C` (centres undefined), the TGI in the test on A549 NSCLC, with COLO 205 colon, in the test on EKVX NSCLC, in the test on HCC-2998 colon, in the test with HCT-116 colon and in the test on K-562 leukemia was over 100 µM throughout. Besides, the TGI in the test on NCI-H23 lung, in the test on NCI-H460 lung, in the test with OVCAR-4 ovarian, in the test with OVCAR-5 ovarian, in the test with SF-295 CNS and in the test with SF-539 CNS was over 100 µM each time. For the same compound, the TGI with SN12C renal was over 100 µM; in the test on SNB-75 CNS, 88.7 µM; in the test on UO-31 renal, over 100 µM.

In the case of `CCOC1c2cc(C(C)C)c(O)c(O)c2[C@@]23CCCC(C)(C)C2C1OC3=O` (some centres undefined), the TGI with A549 NSCLC, in the test with COLO 205 colon, in the test with EKVX NSCLC, in the test with HCC-2998 colon, in the test with HCT-116 colon and in the test with K-562 leukemia was over 100 µM each time. The TGI in the test on M14 melanoma, in the test with NCI-H23 lung, in the test with NCI-H460 lung, in the test with OVCAR-5 ovarian, in the test on SF-295 CNS and in the test with SF-539 CNS was over 100 µM throughout. In addition, the TGI in the test on SN12C renal, in the test with SNB-75 CNS, in the test with UACC-62 melanoma and in the test with UO-31 renal was over 100 µM in each case.

On to `C[N+](C)(C)CC1CCC/C1=N\OC(=O)c1ccccc1` (centres undefined), for which the TGI with A549 NSCLC, in the test on COLO 205 colon, in the test on EKVX NSCLC, in the test on HCT-116 colon, in the test on K-562 leukemia and in the test with M14 melanoma was over 100 µM throughout. Besides, the TGI with NCI-H23 lung, in the test on OVCAR-4 ovarian, in the test with SF-295 CNS, with SF-539 CNS, in the test with SN12C renal and in the test on SNB-75 CNS was over 100 µM each time. The TGI with UACC-62 melanoma and with UO-31 renal was over 100 µM each time.

Take `CCOC(=O)/C(=C/c1ccc(N(C)C)cc1)N(CC)CC`: the TGI with A549 NSCLC was over 100 µM; with COLO 205 colon, over 100 µM; in the test on EKVX NSCLC, over 100 µM; in the test with HCC-2998 colon, over 100 µM; in the test with HCT-116 colon, over 100 µM; with K-562 leukemia, 65.8 µM. Besides, the TGI in the test on M14 melanoma, with NCI-H23 lung, in the test with OVCAR-4 ovarian, in the test with OVCAR-5 ovarian, in the test with SF-295 CNS and in the test on SF-539 CNS was over 100 µM throughout. The TGI with SN12C renal, with UACC-62 melanoma and in the test on UO-31 renal was over 100 µM in each case.

For the compound `O=[N+]([O-])c1ccc(-c2cnc3ccccn23)cc1`, the TGI in the test on A549 NSCLC, in the test with COLO 205 colon, with EKVX NSCLC, with HCT-116 colon, with K-562 leukemia and in the test with M14 melanoma was over 100 µM throughout. In addition, the TGI in the test with NCI-H23 lung, with NCI-H460 lung, in the test on OVCAR-4 ovarian, with OVCAR-5 ovarian, with SF-295 CNS and with SF-539 CNS was over 100 µM throughout. Further, the TGI with SN12C renal is over 100 µM; with SNB-75 CNS it was 92 µM; in the test with UACC-62 melanoma, over 100 µM; in the test on UO-31 renal it was over 100 µM.

With `COc1ccc(C(C#N)NNC(=O)Cc2ccccc2)cc1OC` (centres undefined), the TGI with A549 NSCLC, in the test on COLO 205 colon, with HCT-116 colon, in the test on K-562 leukemia, in the test with M14 melanoma and in the test with NCI-H23 lung was over 100 µM throughout. In addition, the TGI in the test with NCI-H460 lung, in the test on OVCAR-4 ovarian, with OVCAR-5 ovarian, in the test with SF-295 CNS, with SF-539 CNS and in the test with SN12C renal was over 100 µM throughout. Besides, the TGI in the test with SNB-75 CNS, with UACC-62 melanoma and in the test with UO-31 renal was over 100 µM throughout.

For `COC(=O)C(C(=O)Cc1ccccc1[N+](=O)[O-])C(=O)OC`, the TGI in the test with A549 NSCLC, in the test with COLO 205 colon, with EKVX NSCLC, with HCC-2998 colon, in the test with HCT-116 colon and with M14 melanoma was over 100 µM each time. In addition, the TGI with NCI-H23 lung, in the test with NCI-H460 lung, in the test on OVCAR-4 ovarian, in the test on SF-295 CNS, in the test with SF-539 CNS and in the test on SN12C renal was over 100 µM each time. Besides, the TGI in the test on SNB-75 CNS, in the test with UACC-62 melanoma and in the test on UO-31 renal was over 100 µM throughout.
